Data from patent US20250186405A1, “Compound For Use In Treating Narcolepsy” (Alkermes, Inc., priority 2023, published 2025).

Experiments:
Assay type in all cases: in vivo, human
[1] = system: healthy adult subjects; assay: Part 3 RelBA with FE: safety; details: 10 mg
Experimental: (§1) Part 3 compared the relative bioavailability (RelBA) of Compound A between a tablet formulation and the powder-in-capsule formulation. In addition, the food effect (FE) on the bioavailability of Compound A was assessed following administration of tablet formulation. Dose levels were as follows:
(§2) The Part 3 (RelBA with FE) evaluation was conducted using a 2-sequence, 3-period crossover study design in approximately 12 subjects. Subjects in Part 3 were randomized 1:1 to receive 1 of 2 sequences consisting of 3 periods with up to 72 hours of washout between treatments. The first 2 periods were dosed under fasted state and the third period was dosed in a fed state (high-fat meal).
(§3) In treatment period(s) under the fed condition, following overnight fast, all subjects were given a high-fat breakfast. Within 30 minutes of starting the consumption of the breakfast, the assigned treatment was administered. […] There was a 72-hour washout period between the treatments.

[2] = system: subjects with idiopathic hypersomnia (IH); assay: Part 6 IH: Karolinska Sleepiness Scale (KSS); details: for Change From Day −1 in Average Karolinska Sleepiness Scale, LSM difference vs placebo: N = 8; for Change From Day −1 in Average Karolinska Sleepiness Scale, LSM: N = 8, average of 1, 2, 4, 6, 8 h
Experimental: At points within the study, subjects were asked to rate their sleepiness using the KSS with regard to the level of sleepiness they experienced over the past 5 minutes.
The KSS is a validated, self-reported outcome measure of subjective sleepiness. The KSS was developed as a one-dimensional measure of sleepiness and has been validated against assessments like EEG and electrooculography activity (Akerstedt and Gillberg 1990). The KSS is comprised of a single question that asks the subject to rate their sleepiness in the immediately preceding 5 minutes on a 9-point scale where 1=extremely alert and 9=very sleepy, great effort to keep awake, fighting sleep. The KSS takes approximately 10 to 15 seconds to complete. Thus, the KSS is well suited for repeated measurement at short intervals as it assesses situational sleepiness within a short timeframe.
The PD parameters in the POC evaluation (e.g., changes from baseline in sleep latency on MWT, number of errors on SART and level of sleepiness on KSS at matched time points) were summarized using descriptive statistics for each time point by dose level.

[3] = Part 3 relative bioavailability (tablet vs powder-in-capsule) with food effect: plasma PK, 10 mg; details: for increase of peak plasma concentration, fed vs fasted: 10 mg tablet; for AUC(0-inf) / half-life / Cmax / Tmax: human, plasma, oral
Experimental: as §1, §2
Sequence 1 began with powder-in-capsule formulation in Period 1 (fasted), followed by tablet formulation in Period 2 (fasted) and tablet formulation in Period 3 (fed). Sequence 2 began with tablet formulation in Period 1 (fasted), followed by powder-in-capsule formulation in Period 2 (fasted) and tablet formulation in Period 3 (fed).
as §3
Relative bioavailability analysis: A mixed effects model was used to evaluate the effect of a tablet formulation on the PK of Compound A. The primary PK parameters, namely, Cmax, AUC0-t, and […], were logarithmically transformed and used as the dependent variable, with treatment (tablet formulation or powder-in-capsule) as a fixed effect, and subject as a random effect. The ratio of the geometric means of the 2 treatments was obtained from the analysis, and a 2-sided 90% CI for the ratio was estimated. In this comparison, the same dose level of Compound A administered under tablet formulation is the test and powder-in-capsule is the reference. Thus, the comparison of interest is as follows: Fasted in new formulation (Test) vs Fasted in powder-in-capsule (Reference).
Food effect analysis: A mixed effects model was used to evaluate the effect of a high-fat, high caloric meal on the PK of Compound A in the tablet formulation. The primary PK parameters, namely, Cmax, AUC0-t, and AUC0-∞, were logarithmically transformed and used as the dependent variable, with treatment (fed or fasted) as a fixed effect, and subject as a random effect. The ratio of the geometric means of the 2 treatments was obtained from the analysis, and a 2-sided 90% CI for the ratio was estimated. In this comparison, the same dose level of Compound A administered under fed conditions is the test and Compound A administered under fasted conditions is the reference. Thus, the comparison of interest is as follows: Fed a high-fat meal in tablet formulation (Test) vs Fasted in tablet formulation (Reference).
Food effect was studied following a high fat (cohort 1) and low fat (cohort 2) meal. Both cohorts were completed in independent studies. For cohort 1, a high-fat meal was served consisting of 800-1,000 total calories with 150 calories from protein, 250 calories from carbohydrates, 500-600 calories from fat (≥50 percent of calories from fat). For cohort 2, a low-fat meal was served consisting of 400-500 total calories with 100-125 calories from fat (25 percent of calories from fat).

[4] = 10 mg, 10 mg Capsule (Fasted), Cohort 1, N = 9
[5] = 10 mg, 10 mg Tablet (Fasted), Cohort 1, N = 8
[6] = 10 mg, 10 mg Tablet (Fasted), Cohort 2
[7] = 10 mg, 10 mg Tablet (Fasted), Cohort 2, N = 8
[8] = 10 mg, 10 mg Tablet (Fed, high-fat), Cohort 1
[9] = 10 mg, 10 mg Tablet (Fed, low-fat), Cohort 2
[10] = 10 mg, 10 mg Tablet (Fed, low-fat), Cohort 2, N = 10

CS(=O)(=O)N[C@H]1CCCN2C(=O)COc3ccccc3C3CCC(CC3)OCC12 (stereo partly drawn) [Compound A, N-[(4S,4aR,7α,10α)-1,2,3,4,4a,5,7,8,9,10,16,17-dodecahydro-17-oxo-7,10-ethanopyrido[1,2-d][1,7,4]benzodioxaazacyclotridecin-4-yl]methanesulfonamide]
Tolerability ([1]; fed and fasted conditions): well tolerated | subjects reporting at least one AE (of 12) ([1]; three administrations): 11 | LS mean difference vs placebo in change from Day −1, average KSS ([2]; 5 mg): −1.08 | Change From Day −1 in Average Karolinska Sleepiness Scale, LSM difference vs placebo ([2]; 5 mg): −1.08 | Change From Day −1 in Average Karolinska Sleepiness Scale, LSM ([2]; 5 mg): −1.60 | LS mean difference vs placebo in change from Day −1, average KSS ([2]; 12 mg): −0.80 | Change From Day −1 in Average Karolinska Sleepiness Scale, LSM difference vs placebo ([2]; 12 mg): −0.80 | Change From Day −1 in Average Karolinska Sleepiness Scale, LSM ([2]; 12 mg): −1.33 | LS mean difference vs placebo in change from Day −1, average KSS ([2]; 25 mg): −2.18 | Change From Day −1 in Average Karolinska Sleepiness Scale, LSM difference vs placebo ([2]; 25 mg): −2.18 | Change From Day −1 in Average Karolinska Sleepiness Scale, LSM ([2]; 25 mg): −2.70 | increase of peak plasma concentration, fed vs fasted ([3]; high-fat meal, Cohort 1): 3 fold | increase of peak plasma concentration, fed vs fasted ([3]; low-fat meal, Cohort 2): approximately 2 fold | AUC0-∞ ratio (tablet/capsule) ([3]; 10 mg, fasted): 1.2 | Cmax ratio (tablet Cmax/capsule Cmax) ([3]; 10 mg, fasted): 0.9 | AUC(0-inf) [3, 4]: 124 ng·h/mL | half-life [3, 4]: 10.8 h | Cmax ([3]; 10 mg, 10 mg Capsule (Fasted), Cohort 1, geometric mean): 11.8 ng/mL | Tmax ([3]; 10 mg, 10 mg Capsule (Fasted), Cohort 1, median): 2 h | AUC(0-inf) [3, 5]: 144 ng·h/mL | half-life [3, 5]: 11 h | Cmax ([3]; 10 mg, 10 mg Tablet (Fasted), Cohort 1, geometric mean): 10.8 ng/mL | Tmax ([3]; 10 mg, 10 mg Tablet (Fasted), Cohort 1, median): 3.5 h | Cmax [3, 6]: 14.2 ng/mL | Tmax [3, 6]: 2.5 h | AUC(0-inf) [3, 7]: 189 ng·h/mL | half-life [3, 7]: 9.22 h | AUC(0-inf) [3, 8]: 140 ng·h/mL | Cmax [3, 8]: 30.1 ng/mL | half-life [3, 8]: 2.8 h | Tmax ([3]; 10 mg, 10 mg Tablet (Fed, high-fat), Cohort 1, median): 3.5 h | Cmax [3, 9]: 32.1 ng/mL | Tmax [3, 9]: 3.01 h | AUC(0-inf) [3, 10]: 180 ng·h/mL | half-life [3, 10]: 9.69 h
